Results taken from BigSolDB 2.1.

O=c1c(-c2ccc(O)cc2)coc2cc(O[C@@H]3O[C@H](CO)[C@@H](O)[C@H](O)[C@H]3O)ccc12
solubility (mole fraction)
Conditions | 283.2 K | 293.2 K | 303.2 K | 313.2 K | 323.2 K
in THF | 0.000784 | 0.00182 | 0.00684 | 0.0165 | 0.0417
in acetone | 0.000148 | 0.000241 | 0.000326 | 0.000458 | 0.000553
in acetonitrile | 5.77e-06 | 9e-06 | 1.4e-05 | 2e-05 | 3.3e-05
in chloroform | 3.83e-07 | 8.76e-07 | 1.6e-06 | 2.36e-06 | 3.2e-06
in cyclohexane | 1.25e-07 | 2.95e-07 | 5.56e-07 | 1.02e-06 | 1.37e-06
in ethanol | 0.000291 | 0.000397 | 0.000499 | 0.000669 | 0.000813
in ethyl acetate | 5.38e-06 | 7.88e-06 | 1.58e-05 | 4.24e-05 | 6.74e-05
in isopropanol | 0.00016 | 0.000202 | 0.000283 | 0.000427 | 0.000503
in methanol | 8.78e-05 | 0.000162 | 0.000339 | 0.000516 | 0.000794
in n-butanol | 0.000141 | 0.000211 | 0.000253 | 0.000353 | 0.000479
in water | 2.36e-06 | 4.1e-06 | 6.91e-06 | 9.39e-06 | 1.58e-05
